Data taken from patent publication US10975068B2, “6-aminopyridin-3-yl thiazoles as modulators of RORγT” (Janssen Pharmaceutica NV, priority 2016, dated 2021).
Where two headings read alike, the source gives them in different places.

Key:
full-length human RORγt = full-length human RORγt (Homo sapiens (Human), UniProt P51449); test: RORγt (full-length human) reporter assay, Conditions B or C; type: cell-based; details: for inhibition at 3 µM: at 3 μM compound concentration; for RORγt (FL) Reporter Assay B or C, % inhibition (value marked *): marked *: footnote not given; for RORγt (FL) Reporter Assay B or C, % inhibition (value marked ***): marked ***: footnote not given
Sequence of full-length human RORγt (P51449 other isoform, or with tags, fused parts or gaps): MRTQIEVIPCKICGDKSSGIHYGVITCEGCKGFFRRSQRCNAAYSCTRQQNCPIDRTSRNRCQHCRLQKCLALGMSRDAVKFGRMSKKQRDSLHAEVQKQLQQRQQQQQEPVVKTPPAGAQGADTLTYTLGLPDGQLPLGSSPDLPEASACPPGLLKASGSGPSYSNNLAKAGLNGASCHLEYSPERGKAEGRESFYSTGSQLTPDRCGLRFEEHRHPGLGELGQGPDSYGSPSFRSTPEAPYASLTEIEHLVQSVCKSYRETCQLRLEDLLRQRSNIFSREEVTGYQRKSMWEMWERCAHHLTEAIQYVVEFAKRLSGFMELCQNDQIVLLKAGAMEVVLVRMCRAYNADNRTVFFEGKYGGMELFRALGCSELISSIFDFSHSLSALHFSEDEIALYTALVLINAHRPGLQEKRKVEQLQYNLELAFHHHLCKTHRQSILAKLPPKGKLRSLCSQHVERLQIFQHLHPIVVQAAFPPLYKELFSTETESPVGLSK
How it was run: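 Readout is dual luciferase: firefly (GAL4-driven) normalized to DMSO-only and saturating-reference controls, then to CMV-Renilla. Full-length human RORγt fused to GAL4-DBD was transiently expressed in HEK293T; compound exposure ran overnight (16-20 h) starting 4-6 h after transfection, final FBS 1.3%, DMSO 0.1%.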

[1] = target: human RORγt ligand binding domain (RORγt LBD) (Homo sapiens (Human), UniProt P51449); test: RORγt ThermoFluor® assay (thermal shift binding); details: read-out: ThermoFluor® Assay, Kd
Sequence of human RORγt ligand binding domain (RORγt LBD) (P51449 other isoform, or with tags, fused parts or gaps): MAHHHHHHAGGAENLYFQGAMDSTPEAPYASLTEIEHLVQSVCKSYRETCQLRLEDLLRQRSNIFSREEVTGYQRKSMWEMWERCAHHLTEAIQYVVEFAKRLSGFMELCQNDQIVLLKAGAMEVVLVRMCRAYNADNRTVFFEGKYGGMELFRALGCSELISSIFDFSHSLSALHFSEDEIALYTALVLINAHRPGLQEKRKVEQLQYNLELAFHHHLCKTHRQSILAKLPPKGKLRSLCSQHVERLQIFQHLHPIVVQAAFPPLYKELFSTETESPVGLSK
How it was run: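 Binding was inferred from thermal stabilisation (ΔTm) of the E. coli-expressed RORγt LBD (0.065 mg/mL), monitored by 1,8-ANS (60 μM) emission at 500 nm during a 1 °C/min ramp. Buffer was Hepes 100 mM pH 7.0 with NaCl, GSH and Tween-20.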

[2] = read-out: RORγt (FL) Reporter Assay B or C, % inhibition
[3] = read-out: RORγt (FL) Reporter Assay B or C, IC50
[4] = Conditions B or C, read-out: RORγt (FL) Reporter Assay B or C, IC50

| inhibition at 3 µM (full-length human RORγt; [2]) | IC50 (full-length human RORγt; [3]) | Kd [1] | RORγt (FL) Reporter Assay B or C, % inhibition (value marked *) (full-length human RORγt; Conditions B or C) | IC50 (full-length human RORγt; [4]) | RORγt (FL) Reporter Assay B or C, % inhibition (value marked ***) (full-length human RORγt; Conditions B or C) | SMILES | IC50 (full-length human RORγt; RORγt (FL) Reporter Assay B or C, IC50) | inhibition at 1 µM (full-length human RORγt; at 1 μM compound concentration, read-out: RORγt (FL) Reporter Assay B or C, % inhibition) |
| --- | --- | --- | --- | --- | --- | --- | --- | --- |
| 104% | 64 nM | 2.9 nM | – | – | – | C[C@H](Nc1cc(C(F)F)c(-c2sc(C(=O)N[C@H]3CCC[C@@H]3O)nc2C(=O)N2CCC[C@@H]2C)cn1)C(F)(F)F [Example 285, 5-(4-(Difluoromethyl)-6-(((S)-1,1,1-trifluoropropan-2-yl)amino)pyridin-3-yl)-N-((1S,2S)-2-hydroxycyclopentyl)-4-((S)-2-methylpyrrolidine-1-carbonyl)thiazole-2-carboxamide] | – | – |
| 105% | 13 nM | 2.9 nM | – | – | – | C[C@H]1CCCN1C(=O)c1nc(C(=O)N[C@H]2C[C@@](C)(O)C2)sc1-c1cnc(NC(C)(C)C)cc1C(F)(F)F [Example 337, 5-[6-(tert-Butylamino)-4-(trifluoromethyl)-3-pyridyl]-N-(3-hydroxy-3-methyl-cyclobutyl)-4-[(2S)-2-methylpyrrolidine-1-carbonyl]thiazole-2-carboxamide] | – | – |
| – | – | 4.5 nM | 105* % | 28 nM | – | C[C@H]1CCCN1C(=O)c1nc(C(=O)NCC2(O)CCC2)sc1-c1cnc(NC(C)(C)C)cc1C(F)F [Example 133, (S)-5-(6-(tert-Butylamino)-4-(difluoromethyl)pyridin-3-yl)-N-((1-hydroxycyclobutyl)methyl)-4-(2-methylpyrrolidine-1-carbonyl)thiazole-2-carboxamide] | – | – |
| – | – | 0.64 nM | 110* % | 25 nM | – | C[C@H]1CCCN1C(=O)c1nc(C(=O)NCC(C)(C)O)sc1-c1cnc(NC2(C(F)(F)F)CCC2)cc1C(F)(F)F [Example 104, (S)—N-(2-Hydroxy-2-methylpropyl)-4-(2-methylpyrrolidine-1-carbonyl)-5-(4-(trifluoromethyl)-6-((1-(trifluoromethyl)cyclobutyl)amino)pyridin-3-yl)thiazole-2-carboxamide] | – | – |
| 98% | 310 nM | 5.1 nM | – | – | – | C[C@H]1CCCN1C(=O)c1nc(C(=O)N[C@H](C)C(C)(C)O)sc1-c1cnc(NCC(C)(C)C)cc1C(F)F [Example 343, 5-[4-(Difluoromethyl)-6-(2,2-dimethylpropylamino)-3-pyridyl]-N-[(1R)-2-hydroxy-1,2-dimethyl-propyl]-4-[(2S)-2-methylpyrrolidine-1-carbonyl]thiazole-2-carboxamide] | – | – |
| – | – | 2.6 nM | – | 19 nM | 103*** % | CC[C@@H](Nc1cc(C(F)F)c(-c2sc(C(=O)N[C@H]3COC[C@@H]3O)nc2C(=O)N2CCC[C@@H]2C)cn1)C(F)(F)F [Example 207, 5-(4-(Difluoromethyl)-6-(((1R)-1-(trifluoromethyl)propyl)amino)-3-pyridyl)-N-((3S,4R)-4-hydroxytetrahydrofuran-3-yl)-4-((2S)-2-methylpyrrolidine-1-carbonyl)thiazole-2-carboxamide] | – | – |
| 108% | 21 nM | 2.1 nM | – | – | – | CC[C@H](Nc1cc(C(F)F)c(-c2sc(C(=O)N[C@H]3C[C@H](O)C3)nc2C(=O)N2CC(F)(F)C[C@@H]2C)cn1)C(F)(F)F [Example 449, 4-((S)-4,4-Difluoro-2-methylpyrrolidine-1-carbonyl)-5-(4-(difluoromethyl)-6-(((S)-1,1,1-trifluorobutan-2-yl)amino)pyridin-3-yl)-N-((1R,3S)-3-hydroxycyclobutyl)thiazole-2-carboxamide] | – | – |
| 110% | 50 nM | 18 nM | – | – | – | CC(C)[C@@H](C)Nc1cc(C(F)F)c(-c2sc(C(=O)NCC(C)(C)O)nc2C(=O)N2CCC[C@@H]2C)cn1 [Example 297, 5-(4-(Difluoromethyl)-6-(((R)-3-methylbutan-2-yl)amino)pyridine-3-yl)-N-(2-hydroxy-2-methylpropyl)-4-((S)-2-methylpyrrolidine-1-carbonyl)thiazole-2-carboxamide] | – | – |
| 107% | 12 nM | 6.7 nM | – | – | – | CC[C@H](Nc1cc(C(F)F)c(-c2sc(C(=O)N[C@@H]3CC[C@@H]3O)nc2C(=O)N2CCC[C@@H]2C)cn1)C(F)(F)F (relative stereo) [Example 381, 5-(4-(Difluoromethyl)-6-(((S)-1,1,1-trifluorobutan-2-yl)amino)pyridin-3-yl)-N-((1R*,2S*)-2-hydroxycyclobutyl)-4-((S)-2-methylpyrrolidine-1-carbonyl)thiazole-2-carboxamide] | – | – |
| 86% | > 3000 nM | 49 nM | – | – | – | C[C@H]1CCCN1C(=O)c1nc(C(=O)NCc2n[nH]c(=O)[nH]2)sc1-c1cnc(NC(C)(C)C)cc1C(F)(F)F [Example 302, (S)-5-(6-(tert-Butylamino)-4-(trifluoromethyl)pyridin-3-yl)-4-(2-methylpyrrolidine-1-carbonyl)-N-((5-oxo-4,5-dihydro-1H-1,2,4-triazol-3-yl)methyl)thiazole-2-carboxamide] | – | – |
| 103% | 29 nM | 4.4 nM | – | – | – | C[C@H](Nc1cc(C(F)F)c(-c2sc(C(=O)N[C@H]3CC[C@H](O)C3)nc2C(=O)N2CCC[C@@H]2C)cn1)C(F)(F)F [Example 288, 5-(4-(Difluoromethyl)-6-(((S)-1,1,1-trifluoropropan-2-yl)amino)pyridin-3-yl)-N-((1S,3S)-3-hydroxycyclopentyl)-4-((S)-2-methylpyrrolidine-1-carbonyl)thiazole-2-carboxamide] | – | – |
| – | – | 0.55 nM | – | 6.9 nM | 110*** % | C[C@H]1CC(F)(F)CN1C(=O)c1nc(C(=O)NCC(C)(C)O)sc1-c1cnc(NC(C)(C)C)cc1C(F)(F)F [Example 83, (S)-5-(6-(tert-Butylamino)-4-(trifluoromethyl)pyridin-3-yl)-4-(4,4-difluoro-2-methylpyrrolidine-1-carbonyl)-N-(2-hydroxy-2-methylpropyl)thiazole-2-carboxamide] | – | – |
| – | – | 0.22 nM | 76* % | 34 nM | – | C[C@H]1CC(F)(F)CN1C(=O)c1nc(C(=O)N[C@@H]2COC[C@@H]2O)sc1-c1cnc(NC2(C)CCC2)cc1C(F)(F)F (relative stereo) [Example 183, 4-((S)-4,4-Difluoro-2-methylpyrrolidine-1-carbonyl)-N-((3R*,4R*)-4-hydroxytetrahydrofuran-3-yl)-5-(6-((1-methylcyclobutyl)amino)-4-(trifluoromethyl)pyridine-3-yl)thiazole-2-carboxamide] | – | – |
| 99% | 28 nM | 12 nM | – | – | – | C[C@H](Nc1cc(C(F)F)c(-c2sc(C(=O)N[C@H]3CC[C@H]3O)nc2C(=O)N2CCC[C@@H]2C)cn1)C(F)(F)F (relative stereo) [Example 390, 5-(4-(Difluoromethyl)-6-(((S)-1,1,1-trifluoropropan-2-yl)amino)pyridin-3-yl)-N-((1S*,2R*)-2-hydroxycyclobutyl)-4-((S)-2-methylpyrrolidine-1-carbonyl)thiazole-2-carboxamide] | – | – |
| – | – | 40 nM | 95* % | 77 nM | – | C[C@H]1CCCN1C(=O)c1nc(C(=O)NCC2(O)CC2)sc1-c1cnc(NC2CCCC2)cc1C(F)F [Example 2, (S)-5-(6-(Cyclopentylamino)-4-(difluoromethyl)pyridin-3-yl)-N-((1-hydroxycyclopropyl)methyl)-4-(2-methylpyrrolidine-1-carbonyl)thiazole-2-carboxamide] | – | – |
| – | – | 1.2 nM | 119* % | 37 nM | – | CCC(C)(C)Nc1cc(C(F)F)c(-c2sc(C(=O)NCC(C)(C)O)nc2C(=O)N2CCC[C@@H]2C)cn1 [Example 96, (S)-5-(4-(Difluoromethyl)-6-(tert-pentylamino)pyridin-3-yl)-N-(2-hydroxy-2-methylpropyl)-4-(2-methylpyrrolidine-1-carbonyl)thiazole-2-carboxamide] | – | – |

| SMILES | inhibition at 3 µM (full-length human RORγt; [2]) | IC50 (full-length human RORγt; [3]) | Kd [1] | RORγt (FL) Reporter Assay B or C, % inhibition (value marked *) (full-length human RORγt; Conditions B or C) | IC50 (full-length human RORγt; [4]) | RORγt (FL) Reporter Assay B or C, % inhibition (value marked ***) (full-length human RORγt; Conditions B or C) | IC50 (full-length human RORγt; RORγt (FL) Reporter Assay B or C, IC50) | inhibition at 1 µM (full-length human RORγt; at 1 μM compound concentration, read-out: RORγt (FL) Reporter Assay B or C, % inhibition) |
| --- | --- | --- | --- | --- | --- | --- | --- | --- |
| CC(C)(C)Nc1cc(C(F)F)c(-c2sc(C(=O)N[C@H]3CCC[C@@H]3O)nc2C(=O)N2C3CCC2CC3)cn1 [Example 440, 4-((1s,4s)-7-Azabicyclo[2.2.1]heptane-7-carbonyl)-5-[6-(tert-butylamino)-4-(difluoromethyl)-3-pyridyl]-N-[(1S,2S)-2-hydroxycyclopentyl]thiazole-2-carboxamide] | 104% | – | 0.72 nM | – | – | – | 31 nM | – |
| O=C(NC1CCS(=O)(=O)CC1)c1nc(C(=O)N2C3CCC2CC3)c(-c2cnc(N[C@@H](C3CC3)C(F)(F)F)cc2C(F)F)s1 [Example 436, 4-((1s,4s)-7-Azabicyclo[2.2.1]heptane-7-carbonyl)-5-[6-[[(1S)-1-cyclopropyl-2,2,2-trifluoro-ethyl]amino]-4-(difluoromethyl)-3-pyridyl]-N-(1,1-dioxothian-4-yl)thiazole-2-carboxamide] | – | 48 nM | 1 nM | – | – | – | – | 117% |
| C[C@@H](NC(=O)c1nc(C(=O)N2C3CCC2CC3)c(-c2cnc(NC3(C)CCC3)cc2C(F)F)s1)C(C)(C)O [Example 329, 4-((1s,4s)-7-Azabicyclo[2.2.1]heptane-7-carbonyl)-5-(4-(difluoromethyl)-6-((1-methylcyclobutyl)amino)pyridin-3-yl)-N—((R)-3-hydroxy-3-methylbutan-2-yl)thiazole-2-carboxamide] | 89% | 38 nM | 1.7 nM | – | – | – | – | – |
